For data set [1], the target named is T1, NF-κB binding to the scn5a promoter (Rattus norvegicus, UniProt Q63369+Q7TQN4).
T1 construct: endogenous in cells; host or cells: H9c2 cardiomyocytes (nuclear extract / cross-linked chromatin)
As to the kind of experiment: Electrophoretic mobility shift assay with H9c2 nuclear extracts. The data set is classed as cell-based. The source says:
Approximately 5×10^6 cells were scraped for nuclear protein extraction by nuclear extract kit (Activemotif, Carlsbad, Calif.). A double-stranded oligonucleotide containing the consensus-binding sequence (bold) for […] ID NO. 32)) and NF-Kb mutant sequence ([NT] ID NO. 33)) from scn5a promoter were used as probes to assay for binding activity of the nuclear extracts. Protein-DNA complexes were detected using biotin end-labeled double-stranded DNA probes prepared by annealing complementary oligonucleotides. Oligonucleotides were labeled in a reaction using terminal deoxynucleotide transferase and biotin-N4-CTP (Pierce, Rockford, Ill.) following the biotin 3' end DNA labeling kit manual. The binding reaction was performed using the LightShift kit (Pierce). Briefly, 30 μg of nuclear extracts and binding buffer were incubated on ice for 5 min in a volume of 20 μL, then the labeled probe (20 fmol) was added, and the reaction was allowed to incubate for an additional 25 min. Following electrophoresis, the DNA-protein complexes were transferred onto nylon membranes and detected using chemiluminescence. TNF-α activated H9c2 cell nuclear extract (5 μg) was used as positive control. The reaction products were separated on a 6% retardation gel. Specificity was confirmed by addition of unlabelled probe in 200-fold excess.
On the technique in general: A gel shift assay detects complexes by their altered migration in electrophoresis.

The target of data set [2] is T2, NF-κB p50/p65 subunits on the cardiac Na+ channel promoter (Rattus norvegicus, UniProt Q63369+Q7TQN4).
T2 construct: endogenous in cells; host or cells: H9c2 cardiomyocytes (nuclear extract / cross-linked chromatin)
T2 sequence (Q63369 1-433 limits assumed): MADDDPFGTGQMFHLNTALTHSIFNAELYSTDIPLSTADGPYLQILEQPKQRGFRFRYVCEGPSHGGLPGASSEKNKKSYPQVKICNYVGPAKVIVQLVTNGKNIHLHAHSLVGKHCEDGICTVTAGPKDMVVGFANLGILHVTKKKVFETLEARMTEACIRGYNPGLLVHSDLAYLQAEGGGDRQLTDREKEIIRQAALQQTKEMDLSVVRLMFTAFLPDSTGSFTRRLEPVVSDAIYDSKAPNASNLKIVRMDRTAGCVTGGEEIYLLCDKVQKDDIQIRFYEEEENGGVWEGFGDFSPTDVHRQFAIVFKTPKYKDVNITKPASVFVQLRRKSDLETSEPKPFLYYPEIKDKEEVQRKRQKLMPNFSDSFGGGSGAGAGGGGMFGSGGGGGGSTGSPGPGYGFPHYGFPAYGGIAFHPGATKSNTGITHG
T2 sequence (Q7TQN4 whole entry): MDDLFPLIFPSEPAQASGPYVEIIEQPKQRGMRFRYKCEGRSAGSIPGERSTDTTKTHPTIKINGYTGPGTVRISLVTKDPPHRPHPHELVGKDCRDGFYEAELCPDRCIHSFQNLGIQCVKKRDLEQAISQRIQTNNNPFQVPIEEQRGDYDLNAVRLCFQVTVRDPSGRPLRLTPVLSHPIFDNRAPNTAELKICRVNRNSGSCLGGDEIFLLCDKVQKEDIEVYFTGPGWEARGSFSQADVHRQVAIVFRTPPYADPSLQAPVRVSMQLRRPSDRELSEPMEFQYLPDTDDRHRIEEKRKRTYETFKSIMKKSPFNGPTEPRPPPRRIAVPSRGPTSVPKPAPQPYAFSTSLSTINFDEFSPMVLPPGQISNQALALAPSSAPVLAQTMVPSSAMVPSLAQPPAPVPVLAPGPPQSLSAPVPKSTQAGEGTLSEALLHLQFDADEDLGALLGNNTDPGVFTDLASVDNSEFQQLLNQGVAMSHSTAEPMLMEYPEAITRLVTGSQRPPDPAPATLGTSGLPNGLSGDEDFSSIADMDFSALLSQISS
As to the kind of experiment: Chromatin immunoprecipitation (ChIP) assay in H9c2 cells. The data set is classed as cell-based. How it is done:
Formaldehyde cross-linking and chromatin immunoprecipitation was performed as described in manufactory's manual (ChIP-IT™ kit, Activemotif). Briefly, proteins were crosslinked with chromatin using 1% formaldehyde in H9c2 cells with or without treatment. The cells were subsequently sonicated in lysis buffer, and an aliquot of the lysate was used in a PCR reaction. The remaining lysate was cleared with protein G beads. One half of the cleared lysate was incubated with p50 or p65 antibody, while the other half was used as a negative control without the antibody. After reversing the cross-linking, the immuno-complex was digested with proteinase K, and the DNA was purified. DNA was analyzed by PCR with the PicoMax Polymerase (Stratagene, La Jolla, Calif.) and primers specific to the APS3 promoter region.

Data set [3] relates to cardiac sodium channel (scn5a) mRNA. Description: Quantitative real-time RT-PCR of scn5a transcripts in H9c2 cells. The class given is cell-based, rat. (In general: Real-time PCR tracks product formation cycle by cycle.)
Data set [4] deals with cardiac Na+ channel current. Description: Patch-clamp determination of Na+ current in H9c2 cells. The data set is classed as cell-based, rat. As to conditions: H9c2, 20 μmol/L H2O2, 48 h, step to -10 mV. How it is done: Three hours prior to the start of the patch-clamp experiments, H9c2 cells were trypsinized and plated on treated plastic coverslips. H9c2 cells were treated with or without H2O2 as indicated. Glass pipettes were pulled on a Sutter Model P-97 horizontal puller to a resistance of 0.5 to 1.5 MΩ. The glass pipettes were filled with a solution of (in mM) CsCl 60, Cesium Aspartate 80, EGTA sodium 11, HEPES 10, Na2ATP 5 and pH 7.2 with CsOH. The bath solution consisted of (in mM) Na 30, […] chloride 100, CsCl 5, CaCl2 2, MgCl2 1.2, HEPES 10, Glucose 5 and pH 7.4 with NaOH. Once a seal was established, a small amount of suction was applied to obtain the whole cell configuration. From a holding potential of −100 mV, peak currents obtained at −10 mV were used for comparison. Cells were tested at 25° C. Data were sampled at 10 kHz and later filtered at 5 kHz for analysis. Currents were recorded and analyzed with an Axopatch 200B amplifier, Axon Digidata 1230A A/D converter and pClamp software (Molecular Devices Corporation, Sunnyvale, Calif.).
For orientation: The patch-clamp technique gives a direct electrical read-out from membranes.

Data set [5] relates to cardiac sodium channel (scn5a) mRNA. Description: Quantitative real-time RT-PCR of scn5a transcripts in acutely isolated neonatal cardiomyocytes. The data set is classed as cell-based, rat.
In data set [6] the test system is scn5a promoter with mutated NF-κB binding site. As to the kind of experiment: Promoter-reporter assay with mutated NF-κB binding site (APS3-NF-κBm) in H9c2 cells. The class given is cell-based, rat. The note with it: H9c2, 48 h, 100 nM AngII or 20 μM H2O2.
The target of data set [7] is Na+ current (Homo sapiens, UniProt Q14524). The note with it: acute exposure, dependent on PKC activation (Ward et al. 1997); cited from earlier work.
Na+ current, sequence (Q14524 whole entry): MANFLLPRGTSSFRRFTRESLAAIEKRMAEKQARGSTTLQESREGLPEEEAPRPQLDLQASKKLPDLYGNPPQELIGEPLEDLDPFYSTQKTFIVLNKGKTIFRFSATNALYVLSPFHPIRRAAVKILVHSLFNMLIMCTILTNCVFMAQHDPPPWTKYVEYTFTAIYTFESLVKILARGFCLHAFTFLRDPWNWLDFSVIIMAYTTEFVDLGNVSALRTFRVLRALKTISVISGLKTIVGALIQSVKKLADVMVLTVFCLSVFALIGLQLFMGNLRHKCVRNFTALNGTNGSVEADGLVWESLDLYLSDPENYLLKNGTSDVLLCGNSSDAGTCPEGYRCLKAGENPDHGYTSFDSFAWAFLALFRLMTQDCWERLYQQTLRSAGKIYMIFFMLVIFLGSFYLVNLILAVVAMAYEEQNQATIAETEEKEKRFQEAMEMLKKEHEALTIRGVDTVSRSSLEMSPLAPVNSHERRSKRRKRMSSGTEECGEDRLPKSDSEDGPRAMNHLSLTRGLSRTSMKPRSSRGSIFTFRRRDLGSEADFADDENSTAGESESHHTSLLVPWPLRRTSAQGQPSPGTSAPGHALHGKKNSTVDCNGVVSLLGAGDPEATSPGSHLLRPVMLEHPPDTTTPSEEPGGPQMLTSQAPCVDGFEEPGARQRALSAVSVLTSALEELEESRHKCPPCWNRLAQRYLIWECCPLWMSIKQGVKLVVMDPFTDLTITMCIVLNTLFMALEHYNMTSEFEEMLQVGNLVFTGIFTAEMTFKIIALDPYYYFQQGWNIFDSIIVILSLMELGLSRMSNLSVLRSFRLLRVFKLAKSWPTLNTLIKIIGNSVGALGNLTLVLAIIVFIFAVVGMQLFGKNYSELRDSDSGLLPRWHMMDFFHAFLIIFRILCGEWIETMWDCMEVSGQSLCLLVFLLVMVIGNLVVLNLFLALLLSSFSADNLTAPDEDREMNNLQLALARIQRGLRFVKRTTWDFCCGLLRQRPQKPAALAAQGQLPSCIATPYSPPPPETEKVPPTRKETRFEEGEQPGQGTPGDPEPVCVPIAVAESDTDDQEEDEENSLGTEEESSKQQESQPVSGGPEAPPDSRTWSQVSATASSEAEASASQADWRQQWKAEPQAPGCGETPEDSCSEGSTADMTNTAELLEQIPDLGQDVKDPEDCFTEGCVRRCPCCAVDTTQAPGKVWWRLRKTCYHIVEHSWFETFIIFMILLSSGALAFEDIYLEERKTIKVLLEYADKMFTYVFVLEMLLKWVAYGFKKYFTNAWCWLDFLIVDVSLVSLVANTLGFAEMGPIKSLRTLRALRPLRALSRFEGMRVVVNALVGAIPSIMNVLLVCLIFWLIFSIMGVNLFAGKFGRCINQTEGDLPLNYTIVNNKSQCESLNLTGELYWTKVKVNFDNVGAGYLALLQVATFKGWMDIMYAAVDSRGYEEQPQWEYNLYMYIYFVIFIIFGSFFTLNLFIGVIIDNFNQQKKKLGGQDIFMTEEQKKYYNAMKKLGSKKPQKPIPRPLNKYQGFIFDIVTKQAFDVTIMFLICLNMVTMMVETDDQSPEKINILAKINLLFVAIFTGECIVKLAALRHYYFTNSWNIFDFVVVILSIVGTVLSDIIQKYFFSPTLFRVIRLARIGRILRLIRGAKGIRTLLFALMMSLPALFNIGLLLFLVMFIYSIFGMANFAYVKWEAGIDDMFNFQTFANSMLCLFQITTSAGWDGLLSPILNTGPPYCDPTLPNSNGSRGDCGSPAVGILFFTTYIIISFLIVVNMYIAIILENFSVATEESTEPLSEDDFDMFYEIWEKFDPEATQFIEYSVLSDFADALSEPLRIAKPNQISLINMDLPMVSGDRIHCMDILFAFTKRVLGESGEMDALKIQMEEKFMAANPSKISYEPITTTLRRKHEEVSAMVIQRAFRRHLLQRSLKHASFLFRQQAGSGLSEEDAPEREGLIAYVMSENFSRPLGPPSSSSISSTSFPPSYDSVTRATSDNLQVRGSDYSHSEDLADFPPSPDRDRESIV
Data set [8] concerns scn5a promoter. Description: scn5a promoter-reporter (pGL3-APS3) dual-luciferase assay in H9c2 cells. The class given is cell-based, rat. As to conditions: APS3 construct, H9c2, 20 μM H2O2, 48 h.
The test system of data set [9] is H9c2 cardiomyocytes. The note with it: H9c2, serum free medium, 48 h.
Description: The rat embryonic cardiomyocyte cell line, H9c2 (ATCC cat # CRL-1446), or acutely isolated neonatal rat heart cardiomyocytes were used. Rat neonatal ventricular cells were isolated from 3-day-old Sprague-Dawley rats (Charles River Laboratories Wilmington, Mass.) using a kit and following the manufacturer's instructions (Worthington Biochemical Corp. Lakewood, N.J.). Cells cultured in Dulbecco's modified Eagle's medium (DMEM; ATCC, Manassas, Va.) with 10% fetal calf serum (ATCC) under standard tissue culture conditions at 37° C. to 70-80% confluence were exposed to AngII (Sigma, St. Louis, Mo.) or H2O2 (Sigma) in serum free culture medium (SFM) for a total of 48 h in triplicate in 24 well plates. Experiments were repeated three times. After dissociation with 0.125% trypsin-EDTA, 20 μL of 0.4% Trypan-blue (Sigma, St. Louis, Mo.) was added to each well, and a Trypan-blue exclusion viability assay was performed.

T1 sequence (Q63369 1-433 limits assumed): as the sequence (Q63369 1-433 limits assumed) above
T1 sequence (Q7TQN4 whole entry): as the sequence (Q7TQN4 whole entry) above

In the case of `O=C(/C=C/c1ccc(O)c(O)c1)OCCc1ccccc1` [CAPE, caffeic acid phenethyl ester], the “effect on NF-κB binding to scn5a promoter probe” value in [1] (CAPE 10 μM, H9c2 treated with H2O2) is “blocked”. The “effect on binding of p50 and p65 subunits to the channel promoter” value in [2] (H9c2, CAPE) is recorded as “could prevent biding of both subunits”.
With `OO` [H2O2], the “reduction in Na+ channel mRNA” value was 46.9% in [3] (H9c2, 20 μmol/L H2O2, 48 h) and 45.4% in data set [5] (isolated neonatal rat myocytes, 40 nM H2O2, 48 h). The “NF-κB binding activity to scn5a promoter probe” value in data set [1] (H9c2 nuclear extracts, 48 h treatment) is listed as “increased”. The “decrease in peak Na+ current” value in data set [4] is 46%. Also, the “change in promoter activity of construct with mutated NF-κB binding site” value in [6] is “no significant change in activity”. Moreover, in data set [7], the “effect on inactivation of the Na+ current” value is “slowing of inactivation”. For the same molecule, the “NF-κB subunits on the cardiac Na+ channel promoter” value in data set [2] (H9c2, AngII or H2O2 treatment) is given as “formation of the complete p50-p65 NF-κB heterodimer”. The “depression of scn5a Na+ channel promoter activity” value in [8] stood at 42.3%.
`CC[C@H](C)[C@H](NC(=O)[C@H](Cc1ccc(O)cc1)NC(=O)[C@@H](NC(=O)[C@H](CCCNC(=N)N)NC(=O)[C@@H](N)CC(=O)O)C(C)C)C(=O)N[C@@H](Cc1cnc[nH]1)C(=O)N1CCC[C@H]1C(=O)N[C@@H](Cc1ccccc1)C(=O)O` [AngII, angiotensin II]: the “AngII concentrations tolerated (cell viability)” value in data set [9] was in the range of 1 to 500 nM.
On to catalase, for which the “effect on AngII-mediated downregulation of Na+ channel mRNA” value is reported as “prevented” in data set [3] (H9c2, pretreatment with PEG-catalase 250 U/mL, AngII 100 nM, 48 h) and “prevented” in data set [5] (neonatal cardiomyocytes, pretreatment with PEG-catalase 250 U/mL, AngII 2 nM, 48 h).
